Measurements taken from US20220232861A1, “ZINC COMPOUNDS IN FOOD IMMERSION APPLICATIONS” (SAFE FOODS CORPORATION, priority 2019, published 2022).
Read-outs that look alike come from different tables or passages of the source.

What was measured:
Aerobic plate count [1] = settings: Example 3; for Aerobic plate count: drums dipped 10 s, drip 60 s, control 5.2
Method: (§1) Drums (poultry) were purchased from a local retailer, frozen, and thawed for testing. The parts were allowed to sit at room temperature for 24 hours prior to testing. As a control, five drums (Sample IDs 1-5) were individually, aseptically rinsed (100 ml of rinsate).
(§2) Next, approximately 630 mL of 3,000 ppm zinc sulfate was added and manually agitated in 1 gallon of tap water in a 3-gallon bucket to yield a 500 ppm zinc sulfate solution. Five drums (Sample IDs 6-10) were fully submerged in the zinc sulfate solution, manually agitated for 10 seconds, then removed and allowed to drip for 60 seconds. The drums were individually, aseptically rinsed.
(§3) Next, 1 gallon of water and 4 ml of sulfuric acid were added to a bucket to yield a solution having a pH of 1.2. Five drums (Sample IDs 11-15) were fully submerged in the sulfuric acid solution, manually agitated for 10 seconds, then removed and allowed to drip for 60 seconds. The drums were individually, aseptically rinsed.
(§4) Lastly, 1 gallon of water and 630 mL of 3,000 ppm zinc sulfate/sulfuric acid solution were added to a bucket to yield a 500 ppm zinc sulfate/sulfuric acid solution having a pH of 1.2. Five drums (Sample IDs 16-20) were fully submerged in the zinc sulfate/sulfuric acid solution, manually agitated for 10 seconds, then removed and allowed to drip for 60 seconds. The drums were individually, aseptically rinsed.
(§5) All rinsate samples collected were placed in a refrigerator overnight. The samples were analyzed for 3M Aerobic Plate Count (APC) Petrifilm™ (AOAC Official Method 990.12), E. coli/Coliform (EC/CO) Petrifilm™ (AOAC Official Method 998.08), and Enterobacteriaceae (EB) Petrifilm™ (AOAC Official Method 2003.01). The samples were recorded as counts, which were then converted to log10 CFU/mL for statistical analysis of the means.

Enterobacteriaceae [2] = settings: Example 3; for Enterobacteriaceae: drums dipped 10 s, drip 60 s, control 2.8
Method: as §1, §2, §3, §4, §5

Aerobic plate count [3] = settings: Example 4; for Aerobic plate count: drums dipped 10 s, drip 60 s, control 7.9; for APC result versus control, in words: single treatments: 500 ppm zinc sulfate only (samples 6-10) or sulfuric acid pH 1.2 or less
Method: (§6) All rinsate samples collected were placed in a refrigerator overnight. The samples were analyzed for 3M Aerobic Plate Count (APC) Petrifilm™ (AOAC Official Method 990.12), and Enterobacteriaceae (EB) Petrifilm™ (AOAC Official Method 2003.01). The samples were recorded as counts, which were then converted to log10 CFU/mL for statistical analysis of the means.

Enterobacteriaceae [4] = settings: Example 4; for Enterobacteriaceae: drums dipped 10 s, drip 60 s, control 4.9; for EB analysis result versus control, in words: single treatments: 500 ppm zinc sulfate only (samples 6-10) or sulfuric acid pH 1.2 or less
Method: as §6

Salmonella species = settings: ppm = mg of zinc per L of treatment solution; cited from earlier work
[5] = 500 ppm zinc sulfate alone, Sample IDs 6-10
[6] = 1.2 pH sulfuric acid alone, Sample IDs 11-15

Compound: O=S(=O)([O-])[O-].[Zn+2] [zinc sulfate]
- Aerobic plate count, reduction from control (Aerobic plate count [1]; [5]): 0.7 log10 CFU/ml
- Aerobic plate count (Aerobic plate count [1]; [5]): 4.5 log10 CFU/ml
- Enterobacteriaceae, reduction from control (Enterobacteriaceae [2]; [5]): 1.1 log10 CFU/ml
- Enterobacteriaceae (Enterobacteriaceae [2]; [5]): 1.7 log10 CFU/ml
- Aerobic plate count, reduction from control (Aerobic plate count [3]; [5]): 0.7 log10 CFU/ml
- Aerobic plate count (Aerobic plate count [3]; [5]): 7.2 log10 CFU/ml
- APC result versus control, in words (Aerobic plate count [3]): statistically significant microbial reduction
- Enterobacteriaceae, reduction from control (Enterobacteriaceae [4]; [5]): 1.9 log10 CFU/ml
- Enterobacteriaceae (Enterobacteriaceae [4]; [5]): 3.3 log10 CFU/ml
- EB analysis result versus control, in words (Enterobacteriaceae [4]): statistically significant microbial reduction
- minimum inhibitory concentration (MIC) (Salmonella species): about 0.25 ppm

Compound: O=S(=O)(O)O [sulfuric acid, reference compound]
- Aerobic plate count, reduction from control (Aerobic plate count [1]; [6]): 0.6 log10 CFU/ml
- Aerobic plate count (Aerobic plate count [1]; [6]): 4.6 log10 CFU/ml
- Enterobacteriaceae, reduction from control (Enterobacteriaceae [2]; [6]): 1.1 log10 CFU/ml
- Enterobacteriaceae (Enterobacteriaceae [2]; [6]): 1.7 log10 CFU/ml
- Aerobic plate count, reduction from control (Aerobic plate count [3]; [6]): 0.7 log10 CFU/ml
- Aerobic plate count (Aerobic plate count [3]; [6]): 7.2 log10 CFU/ml
- APC result versus control, in words (Aerobic plate count [3]): statistically significant reductions
- Enterobacteriaceae, reduction from control (Enterobacteriaceae [4]; [6]): 0.5 log10 CFU/ml
- Enterobacteriaceae (Enterobacteriaceae [4]; [6]): 4.4 log10 CFU/ml
- EB analysis result versus control, in words (Enterobacteriaceae [4]): statistically significant reductions
